Source: PubChem BioAssay AID248 (DTP/NCI, 2004)
Several values for one entry are separate records, joined by “and”; a condition that tells them apart may be missing. Identical values can stand only once. Inconclusive results and toxic doses are left out. Rule as the data show it: active = T/C of 150% or more; inactive = T/C below 125%. Square brackets hold non-standard residues; d marks the D form. Peptide text beside a SMILES is read from it. ξ: configuration not given here. ξD = NC(CC(=O)O)C(=O)O

Tested on: L1210 leukemia ip in BDF1 mice, survival T/C
Experiment: NCI In Vivo Anticancer Drug Screen. Data for tumor model L1210 Leukemia (intraperitoneal) in B6D2F1 (BDF1) mice
Settings: endpoint: mean survival time, higher = longer survival
How it was run: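 Ratio derived from survival: compound-dosed mice over vehicle-dosed mice, all bearing a transplantable tumor.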

[1] = dose: 100.0 mg/kg/injection, schedule: Q04DX002 (ip), vehicle: Klucel (hydroxypropylcellulose) (HPC)
[2] = dose: 100.0 mg/kg/injection, schedule: Q01DX009 (ip), vehicle: Klucel (hydroxypropylcellulose) (HPC)
[3] = dose: 100.0 mg/kg/injection, schedule: Q04DX003 (ip), vehicle: Klucel (hydroxypropylcellulose) (HPC)
[4] = dose: 200.0 mg/kg/injection, schedule: Q01DX009 (ip), vehicle: Klucel (hydroxypropylcellulose) (HPC)
[5] = dose: 200.0 mg/kg/injection, schedule: Q04DX003 (ip), vehicle: Klucel (hydroxypropylcellulose) (HPC)
[6] = dose: 400.0 mg/kg/injection, schedule: Q04DX003 (ip), vehicle: Klucel (hydroxypropylcellulose) (HPC)
[7] = dose: 400.0 mg/kg/injection, schedule: Q01DX009 (ip), vehicle: Klucel (hydroxypropylcellulose) (HPC)
[8] = dose: 100.0 mg/kg/injection, schedule: Q01DX001 (ip), vehicle: saline
[9] = dose: 100.0 mg/kg/injection, schedule: Q04DX003 (ip), vehicle: saline
[10] = dose: 200.0 mg/kg/injection, schedule: Q01DX001 (ip), vehicle: saline
[11] = dose: 25.0 mg/kg/injection, schedule: Q04DX003 (ip), vehicle: saline
[12] = dose: 50.0 mg/kg/injection, schedule: Q04DX003 (ip), vehicle: saline
[13] = dose: 100.0 mg/kg/injection, schedule: Q04DX003 (ip), vehicle: saline with Tween-80
[14] = dose: 200.0 mg/kg/injection, schedule: Q04DX003 (ip), vehicle: saline with Tween-80
[15] = dose: 400.0 mg/kg/injection, schedule: Q04DX003 (ip), vehicle: saline with Tween-80
[16] = dose: 50.0 mg/kg/injection, schedule: Q01DX001 (ip), vehicle: saline

Measured: T/C

NC(CC(=O)O)C(=O)NCC(=O)O (stereo unspecified) (H-[ξD]-Gly-OH)
inactive: dose: 12.5 mg/kg/injection, schedule: Q04DX002 (ip), vehicle: Klucel (hydroxypropylcellulose) (HPC) 98 % of control | dose: 25.0 mg/kg/injection, schedule: Q04DX002 (ip), vehicle: Klucel (hydroxypropylcellulose) (HPC) 94 % of control | dose: 50.0 mg/kg/injection, schedule: Q04DX002 (ip), vehicle: Klucel (hydroxypropylcellulose) (HPC) 94 % of control | [1] 117 % of control

c1cc2c(c(NC3=NCCCS3)c1)CCCC2
inactive: [2] 102 % of control | [3] 97 % of control | [4] 96 % of control | [5] 95 % of control | [6] 90 % of control

CC(=O)OC(CNCC(=O)O)C(Cl)(Cl)Cl (stereo unspecified)
inactive: dose: 100.0 mg/kg/injection, schedule: Q01DX009 (ip), vehicle: saline with Tween-80 90 % of control | dose: 200.0 mg/kg/injection, schedule: Q01DX009 (ip), vehicle: saline with Tween-80 95 % of control | dose: 400.0 mg/kg/injection, schedule: Q01DX009 (ip), vehicle: saline with Tween-80 97 % of control

C=CC(=O)N1CN(C(=O)C=C)CN(C(=O)C=C)C1
inactive: dose: 1.25 mg/kg/injection, schedule: Q01DX009 (ip), vehicle: saline 99 % of control | dose: 2.5 mg/kg/injection, schedule: Q01DX009 (ip), vehicle: saline 99 % of control | dose: 5.0 mg/kg/injection, schedule: Q01DX009 (ip), vehicle: saline 104 % of control

O=C(CNC(=O)OCc1ccccc1)NCC(=O)NC(Cc1c[nH]c2ccccc12)C(=O)OCc1ccccc1 (stereo unspecified)
inactive: [3] 100 % of control | [5] 101 % of control | [6] 94 % of control

O=P(Cc1ccccc1)(Cc1ccccc1)Cc1ccccc1
inactive: [2] 100 % of control | [4] 91 % of control | [7] 96 % of control

C[CH2][Sn]([CH2]c1ccccc1)([c]1ccccc1)[c]1ccccc1
inactive: [3] 95 % of control | [5] 101 % of control | [6] 93 % of control

CC(=O)NN
inactive: [8] 104 % of control

CC/C=N/Nc1ccnc(SCc2ccccc2)n1
inactive: dose: 100.0 mg/kg/injection, schedule: Q04DX003 (ip), vehicle: gum acacia 103 % of control | dose: 200.0 mg/kg/injection, schedule: Q04DX003 (ip), vehicle: gum acacia 97 % of control | dose: 400.0 mg/kg/injection, schedule: Q04DX003 (ip), vehicle: gum acacia 94 % of control

O=Cc1ccc(O)cn1
inactive: [9] 92 % of control | dose: 200.0 mg/kg/injection, schedule: Q04DX003 (ip), vehicle: saline 87 % of control | dose: 400.0 mg/kg/injection, schedule: Q04DX003 (ip), vehicle: saline 92 % of control

CC(=O)C(Cl)C(C)=O.CC(=O)C(Cl)C(C)=O.CO.CO.[Ni]
inactive: dose: 12.0 mg/kg/injection, schedule: Q01DX009 (ip), vehicle: other 91 % of control | dose: 25.0 mg/kg/injection, schedule: Q01DX009 (ip), vehicle: other 93 % of control | [8] 112 % of control | [10] 89 % of control

CCOC(=O)/C=C/C(=O)O.[Co]
inactive: dose: 12.5 mg/kg/injection, schedule: Q04DX003 (ip), vehicle: saline 114 % of control | [11] 118 % of control | [12] 116 % of control | [9] 118 % of control and 121 % of control

CCN(CC)CCCC(C)Nc1cc(N)nc2nc(-c3ccc(Cl)cc3)c(-c3ccc(Cl)cc3)nc12 (stereo unspecified)
inactive: dose: 37.5 mg/kg/injection, schedule: Q01DX009 (ip), vehicle: Klucel (hydroxypropylcellulose) (HPC) 95 % of control | dose: 37.5 mg/kg/injection, schedule: Q04DX003 (ip), vehicle: Klucel (hydroxypropylcellulose) (HPC) 98 % of control | dose: 75.0 mg/kg/injection, schedule: Q01DX001 (ip), vehicle: other 97 % of control | dose: 75.0 mg/kg/injection, schedule: Q01DX009 (ip), vehicle: Klucel (hydroxypropylcellulose) (HPC) 90 % of control | dose: 75.0 mg/kg/injection, schedule: Q04DX003 (ip), vehicle: Klucel (hydroxypropylcellulose) (HPC) 102 % of control | dose: 150.0 mg/kg/injection, schedule: Q04DX003 (ip), vehicle: Klucel (hydroxypropylcellulose) (HPC) 93 % of control

O=C(OCC(OC(=O)c1ccccc1)C1OCOC2COCOC21)c1ccccc1 (stereo unspecified)
inactive: dose: 100.0 mg/kg/injection, schedule: Q01DX001 (ip), vehicle: Klucel (hydroxypropylcellulose) (HPC) 101 % of control | dose: 200.0 mg/kg/injection, schedule: Q01DX001 (ip), vehicle: Klucel (hydroxypropylcellulose) (HPC) 101 % of control | dose: 400.0 mg/kg/injection, schedule: Q01DX001 (ip), vehicle: Klucel (hydroxypropylcellulose) (HPC) 97 % of control

Cc1cc(S(N)(=O)=O)ccc1Cl
inactive: [13] 93 % of control | [14] 93 % of control | [15] 104 % of control

CC(=O)Nc1ccc([N+](=O)[O-])c(NC(C)=O)n1
inactive: [2] 103 % of control | [13] 101 % of control | [4] 100 % of control | [14] 93 % of control | [7] 97 % of control | [15] 112 % of control

CCCCCCN
inactive: dose: 25.0 mg/kg/injection, schedule: Q01DX001 (ip), vehicle: saline 97 % of control | dose: 25.0 mg/kg/injection, schedule: Q01DX009 (ip), vehicle: saline 93 % of control and 105 % of control | dose: 25.0 mg/kg/injection, schedule: Q04DX002 (ip), vehicle: saline 97 % of control and 100 % of control | [11] 103 % of control | [16] 111 % of control | dose: 50.0 mg/kg/injection, schedule: Q01DX009 (ip), vehicle: saline 101 % of control and 104 % of control | dose: 50.0 mg/kg/injection, schedule: Q04DX002 (ip), vehicle: saline 97 % of control and 103 % of control | [12] 114 % of control | [8] 101 % of control | dose: 100.0 mg/kg/injection, schedule: Q01DX009 (ip), vehicle: saline 102 % of control | [9] 110 % of control

O=C1CCCC/C1=C\Sc1ccccc1
inactive: dose: 100.0 mg/kg/injection, schedule: Q04DX002 (ip), vehicle: saline 95 % of control | dose: 200.0 mg/kg/injection, schedule: Q04DX002 (ip), vehicle: saline 98 % of control | dose: 400.0 mg/kg/injection, schedule: Q04DX002 (ip), vehicle: saline 88 % of control

CC(C)(C)C(=O)CC(=O)C(C)(C)C.CC(C)(C)C(=O)CC(=O)C(C)(C)C.[Ni]
inactive: dose: 10.0 mg/kg/injection, schedule: Q04DX003 (ip), vehicle: saline 100 % of control | dose: 20.0 mg/kg/injection, schedule: Q04DX003 (ip), vehicle: saline 94 % of control | dose: 40.0 mg/kg/injection, schedule: Q04DX003 (ip), vehicle: saline 117 % of control

O=C(OCc1ccccc1CN1CCOCC1)c1ccc(Br)cc1
inactive: [1] 100 % of control | dose: 200.0 mg/kg/injection, schedule: Q04DX002 (ip), vehicle: Klucel (hydroxypropylcellulose) (HPC) 92 % of control | dose: 400.0 mg/kg/injection, schedule: Q04DX002 (ip), vehicle: Klucel (hydroxypropylcellulose) (HPC) 103 % of control

COc1cc(C(C)S(=O)(=O)c2ccc(C)cc2)ccc1O (stereo unspecified)
inactive: dose: 100.0 mg/kg/injection, schedule: Q01DX001 (ip), vehicle: carboxymethylcellulose (CMC) 89 % of control | dose: 200.0 mg/kg/injection, schedule: Q01DX001 (ip), vehicle: carboxymethylcellulose (CMC) 93 % of control | dose: 400.0 mg/kg/injection, schedule: Q01DX001 (ip), vehicle: carboxymethylcellulose (CMC) 93 % of control

O=[N+]([O-])c1cc(F)ccc1O
inactive: [2] 94 % of control | [3] 101 % of control | [13] 97 % of control | [14] 106 % of control

Nc1cc2c(cc1Br)-c1c(C(=O)O)cccc1C2=O
inactive: dose: 75.0 mg/kg/injection, schedule: Q01DX001 (ip), vehicle: carboxymethylcellulose (CMC) 101 % of control | dose: 150.0 mg/kg/injection, schedule: Q01DX001 (ip), vehicle: carboxymethylcellulose (CMC) 95 % of control | dose: 300.0 mg/kg/injection, schedule: Q01DX001 (ip), vehicle: carboxymethylcellulose (CMC) 98 % of control

COc1[nH]c(=O)[nH]c(=O)c1OP(=O)(OC)OC
inactive: [16] 98 % of control | [8] 98 % of control | [10] 98 % of control | dose: 400.0 mg/kg/injection, schedule: Q01DX001 (ip), vehicle: saline 89 % of control
